One data set has as its system phosphorylation of MAP kinase (ERK) in murine colon 26 (C26) carcinoma cells. Put plainly: Cellular inhibition of ERK phosphorylation, C26ELSA (pERK ELISA format). Particulars: Mus musculus, 1 h, C26 cells treated with test compound for one hour at 37° C. It is filed as cell-based. How it is done:
MEK inhibitors were evaluated by determining their ability to inhibit phosphorylation of MAP kinase (ERK) in murine colon 26 (C26) carcinoma cells. Since ERK1 and ERK2 represent the only known substrates for MEK1and MEK2, the measurement of inhibition of ERK phosphorylation in cells provides direct read out of cellular MEK inhibition by the compounds of the invention. Detection of phosphorylation of ERK was carried out either by Western blot or ELISA format. Briefly, the assays involve treatment of exponentially growing C26 cells with varying concentrations of the test compound (or vehicle control) for one hour at 37° C. For Western blot assay, cells were rinsed free of compound/vehicle and lysed in a solution containing 70 mM NaCl, 50 mM glycerol phosphate, 10 mM HEPES, pH 7.4, 1% Triton X-100, 1 mM Na3VO4, 100 μM PMSF, 10 μM leupeptin and 10 μM pepstatin. Supernatants were then subjected to gel electrophoresis and hybridized to a primary antibody recognizing dually phosphorylated ERK1 and ERK2. To evaluate total MAPK levels, blots were subsequently ‘stripped’ and re-probed with a 1:1 mixture of polyclonal antibodies recognizing unphosphorylated ERK1 and ERK2. For pERK ELISA assay, pERK TiterZyme Enzyme immunometric Assay kits were acquired from Assay Designs, Inc (Ann Arbor, Mich.). Briefly, cells were harvested in lysis solution containing 50 mM β-glycerophosphate, 10 mM HEPES, ph7.4, 70 mM NaCl, 2 mM EDTA and 1% SDS and protein lysates were diluted 1:15 with supplied Assay buffer prior to the execution of the assay. The subsequent steps were carried out essentially as recommended by the manufacturer.
The inhibition data generated by the above protocols is disclosed in Table I. If several concentrations of inhibitor were tested, IC50 values (the concentration which gives 50% inhibition) were determined graphically from the dose response curve for % inhibition. Otherwise, percent inhibitions at measured concentrations are reported.
`CSc1ccc(Nc2cc(=O)n(C)cc2-c2nnc(NCCO)o2)c(F)c1` [Example 90, 4-(2-Fluoro-4-methylsulfanyl-phenylamino)-5-[5-(2-hydroxy-ethylamino)[1,3,4]oxadiazol-2-yl]-1-methyl-1H-pyridin-2-one]: the IC50 is over 5 µM.

Tested on in the next data set: not given
Test: not given
Settings: not given
On to `C#Cc1ccc(Nc2cc(=O)[nH]cc2C(=O)NCCO)c(F)c1` [Example 12, 4-(4-Ethynyl-2-fluoroanilino)-N-(2-hydroxyethyl)-6-oxo-1,6-dihydro-3-pyridinecarboxamide], for which the melting point is 265 to 273 °C.

`Cn1cc(C(=O)NC(CO)CO)c(Nc2ccc(I)cc2F)cc1=O` [Example 46, 4-(2-Fluoro-4-iodoanilino)-N-[2-hydroxy-1-(hydroxymethyl)ethyl]-1-methyl-6-oxo-1,6-dihydro-3-pyridinecarboxamide] displayed a melting point of 93 to 98 °C.

In turn, `CCn1cc(C(N)=O)c(Nc2ccc(I)cc2F)cc1=O` [Example 27, 1-Ethyl-4-(2-fluoro-4-iodoanilino)-6-oxo-1,6-dihydro-3-pyridinecarboxamide] gave a melting point of 260 to 262 °C.

Consider `Cn1cc(C(=O)O)c(Nc2ccc(Cl)c(Cl)c2Cl)cc1=O` [Example 65, 1-Methyl-6-oxo-4-(2,3,4-trichloro-phenylamino)-1,6-dihydro-pyridine-3-carboxylic acid], for which the melting point lay in the range of 258 to 261 °C.

Turning to `Cn1cc(C(=O)O)c(Nc2ccc3c(c2)CCC3)cc1=O` [Example 64, 4-(Indan-5-ylamino)-1-methyl-6-oxo-1,6-dihydro-pyridine-3-carboxylic acid], the melting point was 218 to 220 °C.

`Cn1cc(C(=O)NCCCN)c(Nc2ccc(I)cc2F)cc1=O` [Example 53, N-(3-Aminopropyl)-4-(2-fluoro-4-iodoanilino)-1-methyl-6-oxo-1,6-dihydro-3-pyridinecarboxamide]: the melting point fell in the range of 201 to 206 °C.

Consider `Cn1cc(C(N)=O)c(Nc2ccc3ccccc3c2)cc1=O` [Example 43, 1-Methyl-4-(2-naphthylamino)-6-oxo-1,6-dihydro-3-pyridinecarboxamide], for which the melting point was in the range of 254 to 257 °C.

`Cn1cc(C(=O)NOCCO)c(Nc2ccc(F)cc2F)cc1=O` [Example 33, 4-(2,4-Difluoroanilino)-N-(2-hydroxyethoxy)-1-methyl-6-oxo-1,6-dihydro-3-pyridinecarboxamide]: the melting point lay in the range of 232 to 238 °C.

Regarding `CC(CO)NC(=O)c1cn(C)c(=O)cc1Nc1ccc(I)cc1F` (centres unmarked) [Example 49, 4-(2-Fluoro-4-iodoanilino)-N-(2-hydroxy-1-methylethyl)-1-methyl-6-oxo-1,6-dihydro-3-pyridinecarboxamide], the melting point fell in the range of 198 to 202 °C.

`CC(O)CNC(=O)c1cn(C)c(=O)cc1Nc1ccc(I)cc1F` (centres unmarked) [Example 50, 4-(2-Fluoro-4-iodoanilino)-N-(2-hydroxypropyl)-1-methyl-6-oxo-1,6-dihydro-3-pyridinecarboxamide] came in with a melting point of 161 to 166 °C.

The compound `Cc1ccc(Nc2cc(=O)n(C)cc2C(=O)O)cc1C` [Example 63, 4-(3,4-Dimethyl-phenylamino)-1-methyl-6-oxo-1,6-dihydro-pyridine-3-carboxylic acid] had a melting point of 238 to 242 °C.

As for `Cn1cc(C(=O)NOCCO)c(Nc2ccc(Br)cc2F)cc1=O` [Example 38, 4-(4-Bromo-2-fluoroanilino)-N-(2-hydroxyethoxy)-1-methyl-6-oxo-1,6-dihydro-3-pyridinecarboxamide], the melting point lay in the range of 124 to 128 °C.

The compound `NC(=O)c1cn(CCO)c(=O)cc1Nc1ccc(I)cc1F` [Example 22, 4-(2-Fluoro-4-iodoanilino)-1-(2-hydroxyethyl)-6-oxo-1,6-dihydro-3-pyridinecarboxamide] displayed a melting point of 212 to 215 °C.

Consider `Cn1cc(C(=O)NCC(O)CO)c(Nc2ccc(I)cc2F)cc1=O` (centres unmarked) [Example 45, N-(2,3-Dihydroxypropyl)-4-(2-fluoro-4-iodoanilino)-1-methyl-6-oxo-1,6-dihydro-3-pyridinecarboxamide], for which the melting point was 96 to 101 °C.

Take `Cn1cc(C(=O)O)c(Nc2ccc(I)cc2F)cc1=O` [Example 55, 4-(2-fluoro-4-iodoanilino)-1-methyl-6-oxo-1,6-dihydro-3-pyridinecarboxylic acid]: the melting point lay within 254 to 257 °C.

`CCc1ccc(Nc2cc(=O)[nH]cc2C(=O)NCCCO)c(F)c1` [Example 16, 4-(4-Ethyl-2-fluoroanilino)-N-(3-hydroxypropyl)-6-oxo-1,6-dihydro-3-pyridinecarboxamide] showed a melting point of 231 to 233 °C.

The compound `Cc1ccc(Nc2cc(=O)n(C)cc2C(=O)NOCCO)c(F)c1` [Example 35, 4-(2-Fluoro-4-methylanilino)-N-(2-hydroxyethoxy)-1-methyl-6-oxo-1,6-dihydro-3-pyridinecarboxamide] yielded a melting point of 110 to 115 °C.

Compound `CN(C)C(=O)c1cn(C)c(=O)cc1Nc1ccc(I)cc1F` [Example 52, 4-(2-Fluoro-4-iodoanilino)-N,N,1-trimethyl-6-oxo-1,6-dihydro-3-pyridinecarboxamide] came in with a melting point of 106 to 111 °C.

As to `CCCn1cc(C(N)=O)c(Nc2ccc(I)cc2F)cc1=O` [Example 28, 4-(2-Fluoro-4-iodoanilino)-6-oxo-1-propyl-1,6-dihydro-3-pyridinecarboxamide], the melting point was 218 to 220 °C.

Take `NC(=O)c1cn(CCCO)c(=O)cc1Nc1ccc(I)cc1F` [Example 32, 4-(2-Fluoro-4-iodoanilino)-1-(3-hydroxypropyl)-6-oxo-1,6-dihydro-3-pyridinecarboxamide]: the melting point fell in the range of 220 to 223 °C.

As to `CCc1ccc(Nc2cc(=O)[nH]cc2C(=O)NCCO)c(F)c1` [Example 13], the melting point was 256 to 258 °C.

Regarding `Cc1ccc(Nc2cc(=O)n(C)cc2C(=O)NCCCO)c(F)c1` [Example 36, 4-(2-Fluoro-4-methylanilino)-N-(3-hydroxypropyl)-1-methyl-6-oxo-1,6-dihydro-3-pyridinecarboxamide], the melting point was in the range of 142 to 145 °C.

Take `Cn1cc(C(=O)NCCCO)c(Nc2ccc(F)cc2F)cc1=O` [Example 34, 4-(2,4-Difluoroanilino)-N-(3-hydroxypropyl)-1-methyl-6-oxo-1,6-dihydro-3-pyridinecarboxamide]: the melting point lay within 129 to 132 °C.

For the compound `Cn1cc(C(N)=O)c(Nc2ccc(Cl)c(Cl)c2)cc1=O` [Example 56, 4-(3,4-Dichloro-phenylamino)-1-methyl-6-oxo-1,6-dihydro-pyridine-3-carboxylic acid amide], the melting point is over 250 °C.

For the compound `C#Cc1ccc(Nc2cc(=O)[nH]cc2C(=O)NCCCO)c(F)c1` [Example 15, 4-(4-Ethynyl-2-fluoroanilino)-N-(3-hydroxypropyl)-6-oxo-1,6-dihydro-3-pyridinecarboxamide], the melting point was in the range of 249 to 252 °C.

Take `COCCOCCn1cc(C(N)=O)c(Nc2ccc(I)cc2F)cc1=O` [Example 29, 4-(2-Fluoro-4-iodoanilino)-1-[2-(2-methoxyethoxy)ethyl]-6-oxo-1,6-dihydro-3-pyridinecarboxamide]: the melting point fell in the range of 114 to 116 °C.

Compound `Cn1cc(C(=O)NCCO)c(Nc2ccc(I)cc2F)cc1=O` [Example 4, 4-(2-Fluoro-4-iodoanilino)-N-(2-hydroxyethyl)-1-methyl-6-oxo-1,6-dihydro-3-pyridinecarboxamide] gave a melting point of 205 to 208 °C.

As for `Cn1cc(C(N)=O)c(Nc2ccc(C#N)cc2F)cc1=O` [Example 54, 4-(4-Cyano-2-fluoroanilino)-1-methyl-6-oxo-1,6-dihydro-3-pyridinecarboxamide], the melting point was in the range of 261 to 266 °C.

Turning to `O=C(NCCCO)c1cn(CCO)c(=O)cc1Nc1ccc(I)cc1F` [Example 23, 4-(2-Fluoro-4-iodoanilino)-1-(2-hydroxyethyl)-N-(3-hydroxypropyl)-6-oxo-1,6-dihydro-3-pyridinecarboxamide], the melting point lay within 174 to 176 °C.

As for `NC(=O)c1cn(CC(=O)O)c(=O)cc1Nc1ccc(I)cc1F` [Example 25], the melting point is 296 to 300 °C.

Take `N#CCCCn1cc(C(N)=O)c(Nc2ccc(I)cc2F)cc1=O` [Example 26, 1-(3-Cyanopropyl)-4-(2-fluoro-4-iodoanilino)-6-oxo-1,6-dihydro-3-pyridinecarboxamide]: the melting point was in the range of 146 to 150 °C.

The compound `Cn1cc(C(=O)NCCCO)c(Nc2ccc(Br)cc2F)cc1=O` [Example 39, 4-(4-Bromo-2-fluoroanilino)-N-(3-hydroxypropyl)-1-methyl-6-oxo-1,6-dihydro-3-pyridinecarboxamide] yielded a melting point of 167 to 170 °C.

Consider `Cn1cc(C(N)=O)c(Nc2ccc(C(F)(F)C(F)(F)C(F)(F)C(F)(F)F)cc2F)cc1=O`, for which the melting point was 112 to 118 °C.

`CCc1ccc(Nc2cc(=O)n(C)cc2C(N)=O)c(F)c1` [Example 18, 4-(4-Ethyl-2-fluoroanilino)-1-methyl-6-oxo-1,6-dihydro-3-pyridinecarboxamide]: the melting point lay within 268 to 272 °C.

The record behind these values is patent US7273877B2, “5-substituted-4-[(substituted phenyl) amino]-2-pyridone derivatives” (Warner-Lambert Company, LLC, priority 2003, dated 2007).
